The subject of assay [1] is fast inward sodium channels (TTX-sensitive) of rat hippocampal neurons. Description: Aggregation time course versus impact on inward sodium current and other neuronal parameters. In kind it is cell-based.
In assay [2] the test system is fast inward sodium channel (TTX-sensitive) of isolated rat hippocampal neurons. Description: Voltage-clamp recording of fast inward sodium current (INa). In kind it is cell-based.
The test system of assay [3] is isolated adult rat cortical and hippocampal neurons. Description: Current-clamp recording of resting membrane potential and action potentials of single neurons (suction pipette). In kind it is cell-based. From the text: (§1) For all studies as described herein, single neurons freshly dissociated from adult rats (Chad et al, In, Cellular Neurobiology, Ed. J. Chad and H. Wheal, Oxford University Press (1991)) were examined using the suction pipette method (Lee et al., J. Neurosc. Methods, 2; 51-78 (1980)) under current- or voltage-clamp, with use of an Axopatch 200 Amplifier (Axon Instruments, Foster City, Calif.). Amyloid β1-40 was obtained from Polypeptide Laboratories, Torrance, Calif., or from Bachem Biochemica, Heidelberg, Germany.
Shaken aggregation assays (i.e., as in Examples 1-4) were performed as described previously (e.g., Findeis et al., Biochemistry, 38, 6791-6800 (1999)). This aggregation performed prior to use of the aggregated amyloid for contacting cells was done in the same media as the cells were contained, i.e., Hank's Balanced Salt Solution. Aggregation of amyloid for kinetic studies (i.e., as in Example 5), was done in a buffer composed of 10 mM phosphate, 100 mM NaCl, pH 7.4. […] At given times, the turbidities of the reaction mixture were read by measuring light scattering at 405 nm in a Molecular Devices (Menlo Park, Calif.) Vmax Microplate Reader. […]
In current-clamp, the resting membrane potential and action potentials of single neurons were continuously monitored for at least 10-20 minutes until the neuronal activity became stable. […]

Assay [4] deals with calcium ion channel of isolated hippocampal neurons. Description: Voltage-clamp recording of neuronal inward calcium current. It is filed as cell-based, rat. Particulars: 50 μM amyloid β 1-40, about 70 minutes shake-induced aggregation.
Excerpt: as §1
In this experiment, the effect of amyloid β 1-40 on the calcium ion channel was studied using the methods described in Experiment 2 for the sodium channel.

Assay [5] concerns potassium ion channel of isolated neurons. Put plainly: Voltage-clamp recording of potassium currents. It is filed as cell-based, rat.
Excerpt: as §1
In this experiment, the effect of amyloid β 1-40 on the potassium ion channel was studied using the methods described in Experiment 2 for the sodium channel.
In voltage-clamp, within the first 2-5 minutes, in some cells the peptide induced an outward holding current measuring about 10-50 pA, but this small current was enough to hyperpolarize the resting membrane potential from −50 mV to −90 mV. In other cells, the peptide instead caused a gradual depolarization to about −40 mV due to a slight inhibition of the outward holding current. In all cells, amyloid β 1-40 blocked the delayed outward potassium current by about 30-40% at all step potentials.

The values that follow come from patent publication US6589747B2, “Method for identifying compounds that modulate the interaction of amyloid beta or its aggregates with a voltage gated sodium channel” (priority 1999, dated 2003).

“low molecular weight peptide aggregates of amyloid β 1-40 monomer: Low molecular weight aggregates (e.g. tetramer) of amyloid β 1-40”: in assay [1] (compared with monomers or polymers), the “relative potency for inhibiting the fast inward sodium channels” value is recorded as “higher potency”.

“Monomers of amyloid β 1-40: Non-aggregated monomeric form of amyloid β 1-40”: the “impact on the parameters assessed (resting potential, action potential, sodium, calcium, potassium channels)” value in assay [1] (monomeric form, before aggregation) was “did not show significant impact”.

For the compound `NC1=N[C@H](O)[C@H]2[C@H]3O[C@]4(O)O[C@@H]([C@@H](O)[C@@]2(N1)[C@@H]4O)[C@]3(O)CO` [tetrodotoxin (TTX), tetrodotoxin], in assay [2], the “sensitivity of fast inward sodium current to blocker” value was “sensitive”.

Turning to amyloid β 1-40, the “effect on action potentials” value in assay [3] (11.5 μM amyloid β 1-40 added to cortical and hippocampal neurons) is on record as “abrogation of action potentials”. For the same compound, the “time of peptide exposure until action potentials disappeared altogether in most neurons” value in assay [3] (10-50 μM amyloid β 1-40 preaggregated for different times) lay in the range of 20 to 30 min. For the same compound, the “reversibility of effect on fast inward sodium current on wash out” value in assay [2] (50 μM amyloid β 1-40, about 90 and 120 minutes shake-induced aggregation, hippocampal neuron) is recorded as “cannot wash out”. The “block of fast inward sodium current” value in assay [2] (10-50 μM amyloid β 1-40 aggregated for various times, in about 5-30 minutes, holding potential −50 to −80 mV) is listed as at most 90%. In addition, the “effect on neuronal inward calcium currents” value in assay [4] is listed as “depress neuronal inward calcium currents”. Further, the “block of delayed outward potassium current” value in assay [5] (all cells, at all step potentials) was 30-40%. Besides, the “resting membrane potential after hyperpolarization (from −50 mV)” value in assay [5] (cells in which an outward holding current was induced) was −90 mV. Also, the “membrane potential after gradual depolarization” value in assay [5] (other cells, slight inhibition of the outward holding current) is “about −40 mV”. Besides, the “induced outward holding current” value in assay [5] (voltage-clamp, within the first 2-5 minutes, in some cells) was 10-50 pA. Further, in assay [1] (50 μM amyloid β 1-40), the “time of shake-induced aggregation giving peak impact on sodium channel activity (% decrease in INa)” value is 60 to 80 min. For the same compound, the “inhibition level of the fast inward sodium channels after saturation of peptide aggregation” value in assay [1] (after reaching saturation of aggregation, mean values of four experiments) is over 50%.
